Counter-ions that a name gives are not always drawn. Like-named read-outs stand apart in the source and are kept apart here.
Test system: hPSC-SCs
[1] = HTS viability of hPSC-SCs in the presence of 30 mM glucose, Prestwick library, Table S4

Compound	z.score.t [1]	z.score.t
NC[C@@H]1O[C@H](O[C@H]2[C@@H](O)[C@H](O[C@@H]3[C@@H](O)[C@H](N)C[C@H](N)[C@H]3O[C@H]3O[C@H](CN)[C@@H](O)[C@H](O)[C@H]3N)O[C@@H]2CO)[C@H](N)[C@@H](O)[C@@H]1O.O=S(=O)(O)O [Neomycin sulfate]	−0.6492	–
CCNCC(O)c1cccc(O)c1 (stereo not drawn) [Etilefrine hydrochloride]	−0.4549	–
c1cncc(C2=NCCC2)c1 [Myosmine]	–	0.9865
O=C(O)C1CCCNC1 (racemic) [(ñ)-Nipecotic acid]	–	−0.7376
CC(C)(C)c1ccc(C(O)CCCN2CCC(C(O)(c3ccccc3)c3ccccc3)CC2)cc1 (stereo not drawn) [Terfenadine]	−0.8513	–
CC1=C(C(=O)O)N2C(=O)[C@@H](NC(=O)[C@H](N)c3ccccc3)[C@H]2SC1 [Cephalexin monohydrate]	1.08	–
O=P1(NCCCl)OCCCN1CCCl (stereo not drawn) [Ifosfamide]	0.1469	–
COc1cc2c(cc1OC)-c1cc3ccc(OC)c(OC)c3c[n+]1CC2 [Palmatine chloride]	0.5822	–
COc1ccc([C@@H]2CC(=O)c3c(O)cc(O)cc3O2)cc1O [Hesperetin]	1.785	–
COc1ccc2c(c1)c(CC(=O)O)c(C)n2C(=O)c1ccc(Cl)cc1 [Indomethacin]	1.045	–
CCN(CC)C(=O)N1CCN(C)CC1 [Diethylcarbamazine citrate]	0.378	–
O=C(O)[C@H](O)[C@@H](O)[C@H](O[C@@H]1O[C@H](CO)[C@H](O)[C@H](O)[C@H]1O)[C@H](O)CO [Lactobionic acid]	1.942	–
Nc1nc(O)c2ncn(COC(CO)CO)c2n1 [Ganciclovir]	−0.5992	–
C[C@H]1[C@H](NC(=O)/C(=N\OC(C)(C)C(=O)O)c2csc(N)n2)C(=O)N1S(=O)(=O)O [Aztreonam]	1.36	–
NC(=O)OCC(O)COc1ccc(Cl)cc1 (stereo not drawn) [Chlorphensin carbamate]	−0.09426	–
COc1c2c(cc3c1OCO3)CCN(C)C2 [Hydrocotarnine hydrobromide]	1.168	–
N[C@@H](Cc1ccc(O)c(O)c1)C(=O)O [Levodopa]	−1.365	–
COc1ncnc(NS(=O)(=O)c2ccc(N)cc2)c1OC [Sulfadoxine]	0.8015	–
CC[N+]1(C)CCCC(OC(=O)C(O)(c2ccccc2)c2ccccc2)C1 (stereo not drawn) [Pipenzolate bromide]	0.4318	–
CCN(CC)C(C)CN1c2ccccc2Sc2ccccc21 (stereo not drawn) [Ethopropazine hydrochloride]	0.2139	–
CN(Cc1cnc2nc(N)nc(N)c2n1)c1ccc(C(=O)N[C@@H](CCC(=O)O)C(=O)O)cc1 (racemic) [Amethopterin (R,S)]	0.3845	–
CC12CC3CC(C)(C1)CC(N)(C3)C2 [Memantine Hydrochloride]	−0.9598	–
CNC(C)CCC=C(C)C.CNC(C)CCC=C(C)C.O=C(O)[C@@H](O)[C@H](O)[C@H](O)[C@@H](O)C(=O)O [Isometheptene mucate]	1.27	–
CC(=O)S[C@@H]1CC2=CC(=O)CC[C@]2(C)[C@H]2CC[C@@]3(C)[C@@H](CC[C@@]34CCC(=O)O4)[C@H]12 [Spironolactone]	0.05523	–
COc1ccc2c(c1)[nH]c1c(C)nccc12.Cl [Harmine hydrochloride]	–	−1.122

Compound	z.score.t [1]	z.score.t
O=C(O)/C=C/c1ccc(Cn2ccnc2)cc1 [Ozagrel hydrochloride]	−1.148	–
OCCOCCN1CCN(C(c2ccccc2)c2ccc(Cl)cc2)CC1 (stereo not drawn) [Hydroxyzine dihydrochloride]	−0.3011	–
CC(=O)O[C@H]1CC[C@@]2(C)C(=CC[C@@H]3[C@@H]2CC[C@]2(C)C(=O)CC[C@@H]32)C1 [Dehydroisoandosterone 3-acetate]	–	0.7349
NNC(=O)c1ccncc1 [Isoniazid]	0.5041	–
CNCCC=C1c2ccccc2C=Cc2ccccc21 [Norcyclobenzaprine]	0.465	–
CO[C@H]1C[C@H](O[C@H]2[C@H](C)[C@@H](O[C@@H]3O[C@H](C)C[C@H](N(C)C)[C@H]3OC(C)=O)[C@@H](C)C[C@@]3(CO3)C(=O)[C@H](C)[C@@H](OC(C)=O)[C@@H](C)[C@@H](C)OC(=O)[C@@H]2C)O[C@@H](C)[C@@H]1OC(C)=O [Troleandomycin]	1.067	–
Cn1c(-c2ccc3c(c2)OCO3)cc(=O)c2ccccc21 [Graveoline]	0.495	–
c1ccc2c(c1)OCC(C1=NCCN1)O2 (stereo not drawn) [Idazoxan hydrochloride]	−0.03362	–
CC(C)c1c(CN(C)C(C)Cc2ccccc2)n(C)n(-c2ccccc2)c1=O (stereo not drawn) [Famprofazone]	–	−1.288
Cc1cccc(C)c1NC(=O)CN1CCN(CCCC(c2ccc(F)cc2)c2ccc(F)cc2)CC1 [Lidoflazine]	−1.03	–
CC[C@H]1OC(=O)[C@H](C)[C@@H](O[C@H]2C[C@@](C)(OC)[C@@H](O)[C@H](C)O2)[C@H](C)[C@@H](O[C@@H]2O[C@H](C)C[C@H](N(C)C)[C@H]2O)[C@](C)(O)C[C@@H](C)C(=O)[C@H](C)[C@@H](O)[C@]1(C)O [Erythromycin]	−0.09426	–
CC(C)(C)CC(C)(C)c1ccc(OCCOCC[N+](C)(C)Cc2ccccc2)cc1 [Benzethonium chloride]	–	−1.091
Cc1ncc([N+](=O)[O-])n1CC(O)CCl (stereo not drawn) [Ornidazole]	0.1446	–
CC(=O)Nc1ccc(OCC(O)CNC(C)C)cc1 (stereo not drawn) [Practolol]	−0.3112	–
NC(=O)c1cc[n+](CC2=C(C(=O)[O-])N3C(=O)[C@@H](NC(=O)Cc4cccs4)[C@H]3SC2)cc1 [Cefalonium]	−0.3867	–
CN1C2CC(=O)CC1C(O)C2 (stereo not drawn) [6-Hydroxytropinone]	–	−0.3867
CCN1C[C@]2(COC)CC[C@H](O)[C@@]34C5C[C@@H]6[C@@H](OC)C[C@](O)(C(CC23)C14)C5[C@H]6OC(C)=O (stereo partly drawn) [Condelphine]	–	2.361
Cc1ccc(/C(=C\CN2CCCC2)c2ccccn2)cc1 [Triprolidine hydrochloride]	0.2479	–
C[C@@H]1O[C@@H](O[C@@H]2C=C3CC[C@@H]4[C@H](CC[C@]5(C)[C@@H](c6ccc(=O)oc6)CC[C@]45O)[C@@]3(C)CC2)[C@H](O)[C@H](O)[C@H]1O [Proscillaridin A]	–	−1.543
OCc1cc(C(O)CNCCCCCCOCCCCc2ccccc2)ccc1O (stereo not drawn) [Salmeterol]	−1.331	–
C[C@@H](O)[C@H]1C(=O)N2C(C(=O)O)=C(SCCN=CN)C[C@H]12 [Imipenem]	0.767	–
CN(C)Cc1c[nH]c2ccccc12 [Gramine]	1.018	–
Avermectin B1	–	0.7158
C=C1[C@H]2C[C@@]3([C@@H]1O)[C@@H](C[C@@H]2O)[C@]12[C@@H]4C[C@H]3[C@H]1N(CC)C[C@]4(C)CC[C@@H]2O [Napelline]	–	1.178
CC(=O)[C@H]1CC[C@H]2[C@@H]3CCC4=CC(=O)CC[C@]4(C)[C@H]3CC[C@]12C [Progesterone]	0.1767	–

Compound	z.score.t [1]	z.score.t
CC(=O)Oc1ccc(C(c2ccc(OC(C)=O)cc2)c2ccccn2)cc1 [Bisacodyl]	0.4849	–
C=CCOC(Cn1ccnc1)c1ccc(Cl)cc1Cl (stereo not drawn) [Enilconazole]	−1.535	–
CC(C)(C)NC[C@H](O)COc1ccccc1C1CCCC1 [Penbutolol sulfate]	−0.9376	–
Cc1c(C)c2c(c(C)c1O)CC[C@@](C)(CCC[C@H](C)CCC[C@H](C)CCCC(C)C)O2 [Tocopherol (R,S)]	−0.7233	–
COc1ccc2cc([C@@H](C)C(=O)[O-])ccc2c1.[Na+] [(R) -Naproxen sodium salt]	−0.3895	–
COC(=O)C1=C(C)NC(C)=C(C(=O)OC(C)C)C1c1cccc2nonc12 (stereo not drawn) [Isradipine]	0.6428	–
O=c1oc2ccccc2c(O)c1Cc1c(O)c2ccccc2oc1=O [Dicumarol]	−0.3242	–
Nc1nc2c(ncn2COCCO)c(=O)[nH]1 [Acyclovir]	0.2916	–
COc1cc2nc(N3CCN(C(=O)C4CCCO4)CC3)nc(N)c2cc1OC (stereo not drawn) [Terazosin hydrochloride]	0.2582	–
CN[C@H]1CC[C@@H](c2ccc(Cl)c(Cl)c2)c2ccccc21 [Sertraline]	−1.388	–
CCCCOc1cc(C(=O)OCCN(CC)CC)ccc1N [Benoxinate hydrochloride]	0.05523	–
CC[N+](C)(CC)CCOC(=O)C1c2ccccc2Oc2ccccc21 [Methantheline bromide]	−0.3173	–
CCCC(C(=O)OCCN(CC)CC)(c1ccccc1)c1ccccc1 [Proadifen hydrochloride]	−1.138	–
Nc1ccn([C@H]2CC[C@@H](CO)O2)c(=O)n1 [Zalcitabine]	−0.9487	–
CC[C@H]1OC(=O)[C@H](C)[C@@H](O[C@H]2C[C@@](C)(OC)[C@@H](O)[C@H](C)O2)[C@H](C)[C@@H](O[C@@H]2O[C@H](C)C[C@H](N(C)C)[C@H]2O)[C@](C)(O)C[C@@H](C)[C@@H]2N[C@@H](COCCOC)O[C@H]([C@H]2C)[C@]1(C)O [Dirithromycin]	0.3231	–
O=C(O)Cc1cc(I)c(Oc2ccc(O)c(I)c2)c(I)c1	0.4486	–
C=C(C)[C@@H]1[C@H]2OC(=O)[C@@H]1[C@]1(O)C[C@H]3O[C@]34C(=O)O[C@H]2[C@]14C [Picrotoxinin]	–	1.281
C1CCN2C[C@@H]3C[C@@H](CN4CCCC[C@@H]34)[C@H]2C1 [Sparteine (−)]	–	0.1131
CN(C)CCC=C1c2ccccc2CCc2ccccc21.Cl [Amitryptiline hydrochloride]	–	−0.7142
CN(C)C(=O)C(CCN1CCC(O)(c2ccc(Cl)cc2)CC1)(c1ccccc1)c1ccccc1 [Loperamide hydrochloride]	–	−1.329
CCCCC(CC)CN1CN(CC(CC)CCCC)CC(C)(N)C1 (stereo not drawn) [Hexetidine]	−1.372	–
COc1cc(NC(C)CCCN)c2ncccc2c1 (stereo not drawn) [Primaquine diphosphate]	−1.784	–
CCCCC1C(=O)N(c2ccccc2)N(c2ccc(O)cc2)C1=O (stereo not drawn) [Oxyphenbutazone]	−0.8111	–
CN1C[C@H](CNC(=O)OCc2ccccc2)C[C@@H]2c3cccc4c3c(cn4C)C[C@H]21 [Metergoline]	1.211	–
CC1=C(CC(=O)O)c2cc(F)ccc2/C1=C\c1ccc([S+](C)[O-])cc1 (stereo not drawn) [Sulindac]	−0.2425	–
